Legend:
[1] = molecular target: T1, TRIM25 PRYSPRY (Homo sapiens, UniProt Q14258); assay: Intact protein LCMS covalent labelling of recombinant TRIM25 PRYSPRY; format: binding; details: TRIM25 PRYSPRY 10 μM, 4 °C; for TRIM25 PRYSPRY labelling (%): purified compound 50 μM, 24 h; for TRIM25 PRYSPRY labelling: heterobifunctional compound 50 μM, 20 hours
T1 construct: His6-TEV (cleaved yes); made in house; host or cells: Sf9 insect cells (baculovirus)
Protocol: 1 resin (ThermoFisher Scientific, 89964), eluted in 100 mM HEPES pH 7, 500 mM NaCl,
2 300 mM Imidazole, 5% glycerol, 1 mM TCEP, and stored at -80 °C.
5 into a pET49 vector with a His6-HRV-3C (Human Rhinovirus) tag and expressed in
6 BL21 E.coli cells (Agilent Technologies; 230132), with induction at 18 °C overnight by
7 addition of isopropyl β-D-1-thiogalactopyranoside (0.5 mM). Cells were harvested by
8 centrifugation at 4000 rpm in a Beckman J6-M1 rotor for 30 min at 4 °C, the
9 supernatant was discarded and cell pellets were either immediately lysed, or stored at
10 -80°C. The protein was purified via His6-capture on HisPurTM Ni-NTA resin in buffer
11 50 mM HEPES pH 7.5, 300 mM NaCl, 0.5 mM TCEP, 20 mM imidazole, washed
12 extensively with both high salt buffer (50 mM HEPES pH 7.5, 1 M NaCl, 0.5 mM TCEP,
13 20 mM imidazole) and wash buffer (50 mM HEPES pH 7.5, 300 mM NaCl, 0.5 mM
14 TCEP, 20 mM imidazole) before elution in buffer 50 mM HEPES pH 7.5, 300 mM NaCl,
15 0.5 mM TCEP, 500 mM imidazole, and tag cleavage with HRV-3C protease. Cleaved
16 protein was further purified by ion exchange chromatography and size exclusion
17 chromatography into 20 mM HEPES pH 7.5, 150 mM NaCl, 0.5 mM TCEP, and stored
21 For the original chloroacetamide fragment screen, 0.25 μM TRIM25 PRYSPRY or
23 25 mM HEPES pH 7.5, 50 mM NaCl buffer. For intact protein liquid chromatography
24 mass spectrometry (LCMS) kinetic characterisation, 0.5 μM TRIM25 PRYSPRY was
25 used. For selectivity testing with recombinant ubiquitin system protein panel, 10 µM
27 7.5, 50 mM NaCl buffer. Samples were then diluted to 0.5 µM for TRIM25 PRYSPRY,
28 TRIM21 PRYSPRY, OTUD7B OTU, ZRANB1 OTU or 1 µM for TRIM2 NHL, UBCH5B,
29 UBC13K92A, UEV1A, OTUD4 OTU, before injection into the LCMS. For TRIM25
30 PRYSPRY mutants, and for labelling of heterobifunctional compounds, 10 µM protein
32 mM NaCl buffer, and samples were diluted to 1 µM protein before injection into the […]

[2] = molecular target: T2, TRIM25 (peptide FTYC^498SQVLGLHC^506YK) (Homo sapiens, UniProt Q14258); assay: IA-DTB competitive chemoproteomics in live THP-1 cells; format: cell-based, 9606; details: 4 h at 37 °C, compound tested at 50 μM and 10 μM, significant if FC ≤ 0.25, p-value ≤ 0.01
T2 construct: endogenous in cells; host or cells: THP-1
T2 sequence (Q14258 whole entry): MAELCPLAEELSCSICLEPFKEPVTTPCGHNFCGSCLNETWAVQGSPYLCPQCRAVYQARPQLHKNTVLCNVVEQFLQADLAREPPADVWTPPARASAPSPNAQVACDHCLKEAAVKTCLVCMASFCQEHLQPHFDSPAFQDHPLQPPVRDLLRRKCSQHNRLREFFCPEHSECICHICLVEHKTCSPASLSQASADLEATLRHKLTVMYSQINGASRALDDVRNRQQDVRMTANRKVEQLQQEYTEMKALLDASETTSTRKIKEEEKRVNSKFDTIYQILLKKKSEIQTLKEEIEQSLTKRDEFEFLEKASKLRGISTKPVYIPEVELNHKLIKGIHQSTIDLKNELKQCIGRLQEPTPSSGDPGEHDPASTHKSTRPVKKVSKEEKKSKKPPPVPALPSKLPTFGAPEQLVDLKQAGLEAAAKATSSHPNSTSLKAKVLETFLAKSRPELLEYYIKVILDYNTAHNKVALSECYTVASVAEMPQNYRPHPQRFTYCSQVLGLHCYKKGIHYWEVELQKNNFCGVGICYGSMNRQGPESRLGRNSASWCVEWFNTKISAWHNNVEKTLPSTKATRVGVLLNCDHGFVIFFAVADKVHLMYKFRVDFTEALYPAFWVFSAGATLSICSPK

T1 sequence (Q14258 435-630): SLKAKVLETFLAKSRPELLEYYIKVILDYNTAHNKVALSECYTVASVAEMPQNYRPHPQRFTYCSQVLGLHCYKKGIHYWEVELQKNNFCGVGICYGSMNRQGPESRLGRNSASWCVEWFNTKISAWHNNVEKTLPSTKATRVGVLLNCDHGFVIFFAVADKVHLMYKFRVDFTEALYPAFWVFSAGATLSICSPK

Row | TRIM25 PRYSPRY labelling (%) [1] | TRIM25 PRYSPRY labelling [1] | SMILES | TRIM25 engagement in cells [2]
1 | 96% | – | CC1Cc2ccccc2N1C(=O)C1CCCN(C(=O)CCl)C1 (stereo not shown) [Compound 11] | not observed to engage TRIM25
2 | – | 49% | Cc1cc(C(=O)N2CCCN(C(=O)CCl)CC2)ccc1-c1cccc(C(=O)NCCOCCOCCNC(=O)C[C@@H]2N=C(c3ccc(Cl)cc3)c3c(sc(C)c3C)-n3c(C)nnc32)c1 [HB1] | –
3 | 94% | – | Cc1cc(C(=O)N2CCCN(C(=O)CCl)CC2)ccc1-c1ccccc1 [Compound 10] | engaged TRIM25 in cells at the PRYSPRY domain at 50 μM
4 | – | 87% | Cc1cc(C(=O)N2CCCN(C(=O)CCl)CC2)ccc1-c1cccc(C(=O)NCCOCCOCCOCCOCCNC(=O)C[C@@H]2N=C(c3ccc(Cl)cc3)c3c(sc(C)c3C)-n3c(C)nnc32)c1 [HB3] | –
5 | – | 75% | Cc1cc(C(=O)N2CCCN(C(=O)CCl)CC2)ccc1-c1cccc(C(=O)NCCOCCOCCOCCNC(=O)C[C@@H]2N=C(c3ccc(Cl)cc3)c3c(sc(C)c3C)-n3c(C)nnc32)c1 [HB2] | –
